Results taken from US20230248723A1, “PYRROLO[2,3-B]PYRAZINE COMPOUNDS AS CCCDNA INHIBITORS FOR THE TREATMENT OF HEPATITIS B VIRUS (HBV) INFECTION” (Hoffmann-La Roche Inc., priority 2017, published 2023).
Where two headings read alike, the source gives them in different places.

What was measured:
Format in all cases: cell-based
HBeAg [1] = experiment: HBeAg, HBV-infected HepaRG; conditions: Hepatitis B virus
HBeAg [2] = experiment: HBeAg, multiplex assay, HBV-infected PHH; conditions: Hepatitis B virus
Experimental: (§1) Fresh primary human hepatocytes (PXB-PHH) harvested from humanized mice (uPA/SCID mice)—herein called PHH—were obtained from PhoenixBio Co., Ltd (Japan). Cells were seeded on a collagen I-coated plate at the following cell density: 35,000 cells/well (384-well), 70,000 cells/well (96-well), or, 400,000 cells/well (24-well) in modified hepatocyte clonal growth medium (dHCGM). dHCGM is a DMEM medium containing 100 U/ml Penicillin, 100 μg/ml Streptomycin, 20 mM Hopes, 44 mM NaHCO3, 15 μg/ml L-proline, 0.25 μg/ml insulin, 50 nM Dexamethazone, 5 ng/ml EGF, 0.1 mM Asc-2P, 2% DMSO and 10% FBS (Ishida et al., 2015). Cells were cultured at 37° C. incubator in a humidified atmosphere with 5% CO2. Culture medium was replaced 24 h post-plating and every 2 days until harvest.
(§2) Following 4 day of maturation with 1 μM MB-1, HLC were incubated with HBV (purified from CHB individuals) at multiplicity of infection (MOI) 10-40 without PEG for 24 hr; virus inoculum was removed the following day. […] Compound treatment in HLC and PHH was started at day 3 post infection. Compound (in powder) was dissolved in DMSO; the final concentration of DMSO added to cells is 1%. Fresh compound was replenished every 2 day until cells were harvested at day 10 (PHH), or day 14 (HLC). Compound effect on HBV and cellular toxicity was measured by multiplex assay (HBsAg, HBeAg, albumin), branched DNA (pgRNA), or digital PCR (cccDNA) and depicted as % of inhibition compared to DMSO control. Graphs were prepared using Spotfire software.
(§3) A custom, Luminex-based multiplex assay that simultaneously measured HBeAg, albumin, and HBsAg was developed by Radix BioSolutions (Georgetown, Tex.). This is a sandwich immunoassay; each capture antibody was coupled with xMAP™ Luminex magnetic beads. The dynamic ranges of analyte detection are as follows: HBeAg (1-316 ng/ml), albumin (3.1-10,000 ng/ml), and HBsAg (0.1-100 ng/ml) with coefficient variant (CV) […]. Samples were read on FlexMAP 3D (Luminex) and analyzed by Genedata software.

[3] = test system: albumin (secreted, cellular toxicity marker); experiment: Albumin (in vitro cellular tox marker), multiplex assay, PHH; conditions: human
Experimental: as §1, §2, §3

cccDNA = cccDNA assay (digital PCR), HBV-infected PHH
Experimental: as §1
Following 4 day of maturation with 1 μM MB-1, HLC were incubated with HBV (purified from CHB individuals) at multiplicity of infection (MOI) 10-40 without PEG for 24 hr; virus inoculum was removed the following day. HBV infection in PHH was performed at MOI 40+4% PEG. Compound treatment in HLC and PHH was started at day 3 post infection. Compound (in powder) was dissolved in DMSO; the final concentration of DMSO added to cells is 1%. Fresh compound was replenished every 2 day until cells were harvested at day 10 (PHH), or day 14 (HLC). Compound effect on HBV and cellular toxicity was measured by multiplex assay (HBsAg, HBeAg, albumin), branched DNA (pgRNA), or digital PCR (cccDNA) and depicted as % of inhibition compared to DMSO control. Graphs were prepared using Spotfire software.
HBV-infected cells (in 384- or 96-well plate) were lysed with Cells-to-CT Lysis Reagents according to manufacturer's instruction (Thermo Scientific). To remove excess of RC-DNA, samples were digested with T5 exonuclease (10 U) (New England Biolabs), at 37° C. for 1 hr; enzyme was inactivated by heating the samples at 80° C. for 15 min. DNA samples (1.2 μl) were added into the digital PCR Master Mix (QuantStudio Digital PCR Kit, Thermo Scientific) containing cccDNA primers 5′-[…] (forward), 5′-[…] (reverse), and […] (probe) (Werle-Lapostolle et al., 2004) in a total volume 5 μl, and loaded into dPCR array using AccuFill System (AB). Each sample was loaded into 4 subarrays/256 through-holes. Digital PCR assay was run on QuantStudio 12K Flex (AB) and data was analyzed by Digital Suite Software (AB).

HBsAg = experiment: HBsAg, HBV-infected HepaRG; conditions: Hepatitis B virus

For O=C(NC(CO)CO)c1c[nH]c2ncc(C3CC3)nc12 [compound 7], the IC50 (HBeAg [1]; read-out: HBeAg IC50 (μM) Median, HepaRG, HepG2.2.15-derived HBV GT D, MOI 40) was 6.11 µM, the IC50 (HBeAg [1]; read-out: HBeAg IC50 (μM) Median, HepaRG, HepG2.2.15-derived HBV GT D, MOI 125) was 6.55 µM and the IC50 (HBeAg [1]; read-out: HBeAg IC50 (μM) Median, HepaRG, patient-derived HBV GT D, MOI 40) was 0.41 µM. The IC50 (HBeAg [1]; read-out: HBeAg IC50 (μM) Median, HepaRG, patient-derived HBV GT D, MOI 125) was 0.52 µM, the IC50 (HBeAg [2]; 240 h, read-out: HBeAg IC50 (μM) Median, PHH, patient-derived HBV GT A, MOI 40, day 10 pi) was 0.4 µM and the IC50 (HBeAg [2]; 240 h, read-out: HBeAg IC50 (μM) Median, PHH, patient-derived HBV GT B, MOI 40, day 10 pi) was 0.31 µM. For the same compound, the IC50 (HBeAg [2]; 240 h, read-out: HBeAg IC50 (μM) Median, PHH, patient-derived HBV GT C, MOI 40, day 10 pi) was 0.35 µM, the IC50 (HBeAg [2]; 240 h, read-out: HBeAg IC50 (μM) Median, PHH, patient-derived HBV GT D, MOI 40, day 10 pi (Table 5)) was 0.31 µM and the IC50 (HBeAg [2]; read-out: HBeAg IC50 (μM) Median, PHH, HepG2.2.15-derived HBV GT D, MOI 40) was 15.3 µM. It also gave an IC50 (HBeAg [2]; read-out: HBeAg IC50 (μM) Median, PHH, HepG2.2.15-derived HBV GT D, MOI 125) of 15.9 µM, an IC50 (HBeAg [2]; read-out: HBeAg IC50 (μM) Median, PHH, patient-derived HBV (GT D)) of 0.39 µM and an IC50 (HBeAg [2]; read-out: HBeAg IC50 (μM) Median, PHH, patient-derived HBV GT D, MOI 40 (Table 6)) of 0.32 µM. For the same compound, the IC50 (HBeAg [2]; read-out: HBeAg IC50 (μM) Median, PHH, patient-derived HBV GT D, MOI 125) was 0.57 µM, the IC50 (HBeAg [2]; read-out: HBeAg IC50s, PHH, patient-derived HBV GT A-D, range stated in text for HBsAg & HBeAg) was 0.24 to 0.45 µM and the IC50 at 7 days ([3]; HepG2.2.15-derived HBV GT D, MOI 40, read-out: In vitro tox albumin IC50 (μM) Median) was 21.1 µM. It also gave an IC50 at 7 days ([3]; HepG2.2.15-derived HBV GT D, MOI 125, read-out: In vitro tox albumin IC50 (μM) Median) of 20.2 µM, an IC50 at 7 days ([3]; primary human hepatocytes (PXB-PHH) infected with HBV, patient-derived HBV (GT D), read-out: In vitro tox albumin IC50 (μM) Median) of 20.9 µM and an IC50 at 7 days ([3]; primary human hepatocytes (PXB-PHH) infected with HBV, patient-derived HBV GT A, MOI 40, day 10 pi, read-out: In vitro tox albumin IC50 (μM) Median) of 20.3 µM. The IC50 at 7 days ([3]; primary human hepatocytes (PXB-PHH) infected with HBV, patient-derived HBV GT B, MOI 40, day 10 pi, read-out: In vitro tox albumin IC50 (μM) Median) was 19.2 µM, the IC50 at 7 days ([3]; primary human hepatocytes (PXB-PHH) infected with HBV, patient-derived HBV GT C, MOI 40, day 10 pi, read-out: In vitro tox albumin IC50 (μM) Median) was 23.2 µM and the IC50 at 7 days ([3]; primary human hepatocytes (PXB-PHH) infected with HBV, patient-derived HBV GT D, MOI 40 (Table 6), read-out: In vitro tox albumin IC50 (μM) Median) was 23.7 µM. It also gave an IC50 at 7 days ([3]; primary human hepatocytes (PXB-PHH) infected with HBV, patient-derived HBV GT D, MOI 40, day 10 pi (Table 5), read-out: In vitro tox albumin IC50 (μM) Median) of 23.7 µM, an IC50 at 7 days ([3]; primary human hepatocytes (PXB-PHH) infected with HBV, patient-derived HBV GT D, MOI 125, read-out: In vitro tox albumin IC50 (μM) Median) of 20.5 µM and an IC50 (cccDNA; Hepatitis B virus, 240 h, patient-derived HBV GT A, MOI 40, day 10 pi, read-out: cccDNA IC50 (μM) Median) of 7.15 µM. For the same compound, the IC50 (cccDNA; Hepatitis B virus, 240 h, patient-derived HBV GT B, MOI 40, day 10 pi, read-out: cccDNA IC50 (μM) Median) was 6.56 µM, the IC50 (cccDNA; Hepatitis B virus, 240 h, patient-derived HBV GT C, MOI 40, day 10 pi, read-out: cccDNA IC50 (μM) Median) was 6.2 µM and the IC50 (cccDNA; Hepatitis B virus, 240 h, patient-derived HBV GT D, MOI 40, day 10 pi (Table 5), read-out: cccDNA IC50 (μM) Median) was 6.69 µM. For the same compound, the IC50 (cccDNA; Hepatitis B virus, HepG2.2.15-derived HBV GT D, MOI 40, read-out: cccDNA IC50 (μM) Median) was 25 µM, the IC50 (cccDNA; Hepatitis B virus, HepG2.2.15-derived HBV GT D, MOI 125, read-out: cccDNA IC50 (μM) Median) was 25.2 µM and the IC50 (cccDNA; Hepatitis B virus, patient-derived HBV (GT D), read-out: cccDNA IC50 (μM) Median) was < 10 µM. It also gave an IC50 (cccDNA; Hepatitis B virus, patient-derived HBV GT A-D, read-out: cccDNA IC50s) of 6.2 to 7.15 µM, an IC50 (cccDNA; Hepatitis B virus, patient-derived HBV GT D, MOI 40 (Table 6), read-out: cccDNA IC50 (μM) Median) of 6.41 µM and an IC50 (cccDNA; Hepatitis B virus, patient-derived HBV GT D, MOI 125, read-out: cccDNA IC50 (μM) Median) of 6.78 µM. The IC50 (cccDNA; patient-derived HBV (GT D), read-out: cccDNA IC50 (μM) Median) was 6.76 µM, the IC50 (HBsAg; read-out: HBsAg IC50 (μM) Median, HepaRG, HepG2.2.15-derived HBV GT D, MOI 40) was 9.01 µM and the IC50 (HBsAg; read-out: HBsAg IC50 (μM) Median, HepaRG, HepG2.2.15-derived HBV GT D, MOI 125) was 10.3 µM. It also gave an IC50 (HBsAg; read-out: HBsAg IC50 (μM) Median, HepaRG, patient-derived HBV GT D, MOI 40) of 0.67 µM and an IC50 (HBsAg; read-out: HBsAg IC50 (μM) Median, HepaRG, patient-derived HBV GT D, MOI 125) of 0.88 µM.
